Reference: US5948814A, “Genistein for the treatment of cystic fibrosis” (priority 1998, dated 1999)

The molecules below were run against T1, ΔF508-CFTR (Homo sapiens, UniProt P13569, DEL508-508) (assay: Other protein tyrosine kinase inhibitors, activation of ΔF508-CFTR). Conditions: not given.
T1 sequence (P13569 with tags, fused parts or gaps DEL508-508): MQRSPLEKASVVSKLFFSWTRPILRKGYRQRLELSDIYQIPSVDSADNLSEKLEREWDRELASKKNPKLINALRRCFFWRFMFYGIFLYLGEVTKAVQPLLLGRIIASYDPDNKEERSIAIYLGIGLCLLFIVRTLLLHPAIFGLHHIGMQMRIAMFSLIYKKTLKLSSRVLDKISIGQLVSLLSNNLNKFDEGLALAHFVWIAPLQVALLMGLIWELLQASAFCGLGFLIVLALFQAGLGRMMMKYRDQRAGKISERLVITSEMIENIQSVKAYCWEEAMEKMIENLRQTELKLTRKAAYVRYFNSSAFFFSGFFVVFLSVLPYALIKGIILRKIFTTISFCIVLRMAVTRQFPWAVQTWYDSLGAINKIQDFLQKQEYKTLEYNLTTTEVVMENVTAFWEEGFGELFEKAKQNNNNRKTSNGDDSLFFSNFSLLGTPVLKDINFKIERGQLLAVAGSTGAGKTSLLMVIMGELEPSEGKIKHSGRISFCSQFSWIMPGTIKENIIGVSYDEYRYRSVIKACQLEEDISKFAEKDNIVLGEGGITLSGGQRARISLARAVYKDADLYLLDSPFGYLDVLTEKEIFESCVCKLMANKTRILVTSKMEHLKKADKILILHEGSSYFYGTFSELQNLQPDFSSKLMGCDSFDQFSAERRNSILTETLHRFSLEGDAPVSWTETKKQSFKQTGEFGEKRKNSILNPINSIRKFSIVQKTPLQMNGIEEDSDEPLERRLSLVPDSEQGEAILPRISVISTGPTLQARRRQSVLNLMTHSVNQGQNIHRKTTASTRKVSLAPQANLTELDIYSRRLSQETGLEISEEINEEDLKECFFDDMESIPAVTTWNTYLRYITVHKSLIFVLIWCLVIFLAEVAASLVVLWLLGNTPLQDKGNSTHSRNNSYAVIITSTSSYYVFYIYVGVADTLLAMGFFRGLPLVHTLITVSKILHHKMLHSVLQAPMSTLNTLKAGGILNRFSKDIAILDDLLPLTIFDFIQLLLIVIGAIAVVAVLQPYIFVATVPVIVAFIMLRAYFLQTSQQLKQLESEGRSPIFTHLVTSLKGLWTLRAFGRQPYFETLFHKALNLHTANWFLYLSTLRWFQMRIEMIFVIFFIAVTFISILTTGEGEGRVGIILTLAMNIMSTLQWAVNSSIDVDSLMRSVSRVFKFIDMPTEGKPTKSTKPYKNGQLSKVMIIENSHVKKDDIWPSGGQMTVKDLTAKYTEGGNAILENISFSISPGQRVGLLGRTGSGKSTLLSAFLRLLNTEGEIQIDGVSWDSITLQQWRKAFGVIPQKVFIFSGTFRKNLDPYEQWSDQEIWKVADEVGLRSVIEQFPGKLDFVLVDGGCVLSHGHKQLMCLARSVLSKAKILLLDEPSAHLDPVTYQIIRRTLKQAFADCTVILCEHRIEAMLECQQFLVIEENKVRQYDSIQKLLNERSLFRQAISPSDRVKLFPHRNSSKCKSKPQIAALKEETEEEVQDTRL
Assay type: cell-based
Set-up: expressed in transfected cells; host or cells: NIH/3T3 cells, stably transfected (NIH/3T3-ΔF508, gift of Dr. Richard Mulligan)
For `Nc1ccc(-c2cc(=O)c3cc(O)ccc3o2)cc1` [aminogenistein, 4'-amino-6-hydroxyflavone], the “ΔF508-CFTR stimulation activity among protein tyrosine kinase inhibitors” value was “is the only protein tyrosine kinase inhibitor that has such an effect”.

Same assay, conditions: methodology of Example 1
`CC(=O)OCOC(c1ccc2ccccc2c1)P(=O)(OCOC(C)=O)OCOC(C)=O` (stereo not drawn) [HNMP-A (AM)^3] was tested, and the “activation of ΔF508-CFTR” value was “failed to activate ΔF508-CFTR”.
In the case of `Cc1ccc(-c2nn(C(C)(C)C)c3ncnc(N)c23)cc1` [PP1], the “activation of ΔF508-CFTR” value is reported as “failed to activate ΔF508-CFTR”.
In the case of `CCOc1cc(C=C(C#N)C(N)=O)cc(CSc2ccccc2)c1O` [ST638], the “activation of ΔF508-CFTR” value is reported as “failed to activate ΔF508-CFTR”.
`O=c1c(-c2ccc(O)cc2)coc2cc(O)ccc12` [daidzein] was tested, and the “activation of ΔF508-CFTR” value was “failed to activate ΔF508-CFTR”.
With `COc1c(C=O)c(O)cc2c1C(=O)c1ccccc1C2=O` [damnacanthal] the “activation of ΔF508-CFTR” value was “failed to activate ΔF508-CFTR”.
For `Cc1cc(O)c2c(c1)C(=O)c1cc(O)cc(O)c1C2=O` [emodin], the “activation of ΔF508-CFTR” value was “failed to activate ΔF508-CFTR”.
For `COC(=O)/C=C/c1cc(O)ccc1O` [erbstatin analogue], the “activation of ΔF508-CFTR” value was “failed to activate ΔF508-CFTR”.
With `COC1=C2C[C@@H](C)C[C@H](OC)[C@H](O)[C@@H](C)/C=C(\C)[C@H](OC(N)=O)[C@@H](OC)/C=C\C=C(/C)C(=O)NC(=CC1=O)C2=O` [geldanamycin] the “activation of ΔF508-CFTR” value was “failed to activate ΔF508-CFTR”.
In the case of `COC1C=CC=C(C)C(=O)NC2=CC(=O)C=C(C2=O)C(OC)C(C)CC(OC)C(OC)C(C)C=C(C)C1OC(N)=O` (stereo not drawn) [herbimycin A], the “activation of ΔF508-CFTR” value is reported as “failed to activate ΔF508-CFTR”.
In the case of `O=C(O)c1cc(N(Cc2ccccc2O)Cc2cc(O)ccc2O)ccc1O` [lavendustin A], the “activation of ΔF508-CFTR” value is reported as “failed to activate ΔF508-CFTR”.
In the case of `O=C(O)c1cc(N(Cc2ccccc2O)Cc2ccccc2O)ccc1O` [lavendustin B], the “activation of ΔF508-CFTR” value is reported as “failed to activate ΔF508-CFTR”.
With `COC(=O)c1cc(NCc2cc(O)ccc2O)ccc1O` [lavendustin C methyl ester] the “activation of ΔF508-CFTR” value was “failed to activate ΔF508-CFTR”.
`Oc1cc(O)cc(/C=C/c2ccc(O)c(O)c2)c1` [piceatannol] was tested, and the “activation of ΔF508-CFTR” value was “failed to activate ΔF508-CFTR”.

The molecules below were run against wt-CFTR (Homo sapiens, UniProt P13569) (assay: not given). Conditions: ATP without genistein; stated for both wt- and ΔF508-CFTR.
Sequence of wt-CFTR (P13569 whole entry): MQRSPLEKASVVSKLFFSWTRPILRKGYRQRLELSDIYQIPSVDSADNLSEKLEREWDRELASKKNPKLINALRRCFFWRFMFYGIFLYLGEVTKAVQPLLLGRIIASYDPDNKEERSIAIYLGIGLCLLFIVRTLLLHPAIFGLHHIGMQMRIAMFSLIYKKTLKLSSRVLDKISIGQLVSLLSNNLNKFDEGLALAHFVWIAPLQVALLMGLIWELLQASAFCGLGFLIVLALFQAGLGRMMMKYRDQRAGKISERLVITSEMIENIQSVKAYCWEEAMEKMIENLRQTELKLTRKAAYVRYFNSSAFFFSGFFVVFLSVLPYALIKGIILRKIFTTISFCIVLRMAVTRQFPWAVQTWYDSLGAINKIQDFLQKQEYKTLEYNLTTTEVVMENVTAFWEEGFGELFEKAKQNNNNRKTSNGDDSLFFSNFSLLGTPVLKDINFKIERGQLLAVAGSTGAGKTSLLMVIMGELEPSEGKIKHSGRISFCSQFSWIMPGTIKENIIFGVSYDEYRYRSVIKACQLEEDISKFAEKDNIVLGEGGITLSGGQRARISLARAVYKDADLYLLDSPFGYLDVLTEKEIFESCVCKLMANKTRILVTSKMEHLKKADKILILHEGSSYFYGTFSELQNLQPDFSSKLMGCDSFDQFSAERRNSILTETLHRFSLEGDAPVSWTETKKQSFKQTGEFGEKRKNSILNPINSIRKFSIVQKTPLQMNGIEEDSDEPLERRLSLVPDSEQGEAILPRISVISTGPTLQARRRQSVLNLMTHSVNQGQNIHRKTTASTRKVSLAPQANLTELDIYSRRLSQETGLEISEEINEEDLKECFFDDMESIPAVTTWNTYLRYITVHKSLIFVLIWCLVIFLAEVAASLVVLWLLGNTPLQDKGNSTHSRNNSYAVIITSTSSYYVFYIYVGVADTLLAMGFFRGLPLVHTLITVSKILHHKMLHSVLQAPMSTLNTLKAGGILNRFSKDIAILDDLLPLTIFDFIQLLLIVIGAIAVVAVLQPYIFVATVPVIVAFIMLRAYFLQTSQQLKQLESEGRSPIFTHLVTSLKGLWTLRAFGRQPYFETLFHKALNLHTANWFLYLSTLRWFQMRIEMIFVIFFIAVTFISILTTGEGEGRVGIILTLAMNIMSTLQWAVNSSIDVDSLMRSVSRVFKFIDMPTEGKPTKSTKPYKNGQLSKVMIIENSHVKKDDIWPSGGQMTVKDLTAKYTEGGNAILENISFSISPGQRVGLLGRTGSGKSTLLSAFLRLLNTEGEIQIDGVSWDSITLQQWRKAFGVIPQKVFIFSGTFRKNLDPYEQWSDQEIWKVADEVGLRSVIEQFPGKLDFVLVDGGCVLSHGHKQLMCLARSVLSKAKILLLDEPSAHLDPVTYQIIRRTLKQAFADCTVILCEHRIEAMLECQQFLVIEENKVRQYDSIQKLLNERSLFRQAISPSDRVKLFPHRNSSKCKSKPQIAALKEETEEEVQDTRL
Procedure: (§1) FIGS. 9A and B are recordings of the effects of genistein on CFTR gating in excised inside-out patches from NIH/3T3-CFTR or NIH/3T3-ΔF508 cells. CFTR channels were activated by 10 μM forskolin +20 nM calyculin A before excision into an inside-out configuration. Presence of calyculin A helps to slow channel dephosphorylation. (A): continuous 14.5 minute recording of a patch containing wt-CFTR. Expanded traces are 22 seconds in length. ATP (500 μM) with or without 20 μM genistein was present as indicated. (B): 2 traces of 44 seconds in length of an excised inside-out patch with CFTR-ΔF508.
(§2) Electrophysiology: CFTR channel currents were recorded at room temperature (~22° C.) with a patch-clamp amplifier (EPC-9, Heka Electronic), filtered at 100 Hz with a built-in three-pole Bessel filter, and stored on videotapes. Data were subsequently refiltered at 25 Hz with an eight-pole Bessel filter (Frequency Device, Havervill, Mass.) and captured onto a hard disk at a sampling rate of 50 Hz. […] Patch-clamp electrodes were made from Corning 7052 glass capillaries (Warner Instrument, Hammed, Conn.). The pipette resistance was usually 3-5 M.OMEGA., and the seal resistance was >20 G.OMEGA.. The pipette solution contained (in mM) 140 N-methyl-D-glucamine chloride (NMDG-C1), 2 MgCl2, 5Ca Cl2, and 10 HEPES (pH 7.4 with NMDG). The superfusion solution contained (in mM) 150 […], 2 MgCl2, 1 EGTA, 5 glucose, and 5 HEPES (pH 7.4 with NaOH). In excised inside-out patch experiments, the bath solution contained (in mM) 130 MNDG-Cl, 10 EGTA, 10 HEPES, 20 tetraethylammonium chloride, 8 Tris, and 2 MgCl2 (pH 7.4 with NMDG). Pipette potential was held at 50 mV relative to the bath. Downward deflections represent channel opening.
(§3) Channels were first activated in cell-attached patches with forskolin plus calyculin A, a membrane-permeant phosphatase inhibitor [Suganuma et al., 1991]. Patches were then excised into an inside-out configuration.
`Nc1ncnc2c1ncn2[C@@H]1O[C@H](COP(=O)(O)OP(=O)(O)OP(=O)(O)O)[C@@H](O)[C@H]1O` [ATP, reference compound] gave a channel open time of 302±2 milliseconds.

What follows are molecules tested against T1, ΔF508-CFTR (assay: CFTR gating in excised inside-out patches, NIH/3T3-ΔF508 cells). Conditions: ATP without genistein; stated for both wt- and ΔF508-CFTR.
Procedure: as §1, §2, §3
With `Nc1ncnc2c1ncn2[C@@H]1O[C@H](COP(=O)(O)OP(=O)(O)OP(=O)(O)O)[C@@H](O)[C@H]1O` [ATP, reference compound] the channel open time was 302±2 milliseconds.

These molecules were tested on CFTR (assay: Other protein tyrosine kinase inhibitors, enhancement of CFTR activity). Conditions: methodology of Example 1.
Assay type: cell-based
Procedure: Based on the results of Example 1 other protein tyrosine kinase inhibitors were tested using the methodology of Example 1.
With `O=c1c(O)c(-c2ccc(O)c(O)c2)oc2cc(O)cc(O)c12` [quercetin] the “enhancement of CFTR activity” value was “failed to enhance CFTR activity”.

The molecules below were run against T1, ΔF508-CFTR (assay: Patch clamp, cell-attached patches, macroscopic current, NIH/3T3-ΔF508 cells). Conditions: 200 μM CPT-cAMP after 10 μM forskolin.
Procedure: FIGS. 3A and B show recordings of the potentiation of wild-type (wt) and ΔF508-CFTR channel activity by genistein. Channels in cell-attached patches from NIH/3T3-CFTR (FIG. 3A) and NIH/3T3-ΔF508cells (FIG. 3B), were stimulated as indicated with 10 μM forskolin and 50μ genestein.
Cell culture: NIH/3T3-CFTR, NIH/3T3-ΔF508, and NIH/3T3 mock cells (generous gifts from Dr. Richard Mulligan of Children's Hospital and Medical Center, Harvard Medical School) were grown as described [Bradbury et al., 1992] at 37° C. and 5% CO2 in Dulbecco's modified Eagle's medium-H21 supplemented with 10% new-born calf serum, 4 mM glutamine, 25 mM glucose, 100 μg/ml penicillin, 100 μg/ml streptomycin, and 50 μg/ml gentamicin. Cells were maintained in T75 flasks, passaged at 90-95% confluency, and split one to four. For measurements of I^- efflux and in vivo phosphorylation, cells were seeded onto 35-mm dishes at […]. For patch-clamp experiments, cells were grown on coverglass chips in 35-mm culture dishes. Media were replaced 24 hours after plating and thereafter every 48 hours. In all cases, media were changed on the day before I^- efflux studies, NIH/3T3-ΔF508 cells were transferred to 27° C. three days before use, and 1 day prior to study, media were supplemented with 5 mM butyrate. For patch-clamp studies, where a constant level of functional ΔF508-CFTR was not essential, NIH/3T3-ΔF508 cells were cultured at 27° C. for 2-6 days before use. Calu-3 cells were grown and maintained as described by Hunter [1995].
as §2, with “In excised inside-out patch experiments, the bath solution contained (in mM) 130 MNDG-Cl, 10 EGTA, 10 HEPES, 20 tetraethylammonium chloride, 8 Tris, and 2 MgCl2 (pH 7.4 with NMDG). Pipette potential was held at 50 mV relative to the bath. Downward deflections represent channel opening.” left out
Statistics: Mean currents and variance were estimated with Igor (Wavemetrics, Lake Oswego, Oreg.). […] Po was calculated from patches containing a single channel by dividing the open channel current amplitude with the mean-current amplitude. […] Calculated values are presented as means±SE. […]
`Nc1ncnc2c1nc(Sc1ccc(Cl)cc1)n2[C@@H]1O[C@@H]2COP(=O)(O)O[C@H]2[C@H]1O` [CPT-cAMP, 8-(4-chlorophenylthio)-cAMP, reference compound] was tested, and the “effect on mean-current amplitude of forskolin-stimulated cells” value was “failed to increase the mean-current amplitude”.
